pEC50: −log10 of the molar value.
Tested on: primary cultured guinea-pig urinary bladder (GPB) cells
Test: Membrane hyperpolarization (MHP) assay, DiBAC(4)3 / FLIPR
Assay type: cell-based
Conditions: for Emax / Maximal Response (% P1075): maximal steady-state hyperpolarization, normalized to 10 μM P1075 = 100%; for Emax: read-out: Maximal Response (% P1075); for pEC50: membrane hyperpolarization in GPB cells
Description: Compounds were evaluated for potassium channel opening activity using primary cultured guinea-pig urinary bladder (GPB) cells.
For the preparation of urinary bladder smooth muscle cells, urinary bladders were removed from male guinea-pigs (Hartley, Charles River, Wilmington, Mass.) weighing 300-400 g and placed in ice-cold Ca^2+-free Krebs solution (Composition, mM: KCl, 2.7; KH2PO4, 1.5; NaCl, 75; Na2HPO4, 9.6; Na2HPO4.7H2O, 8; MgSO4, 2; glucose, 5; HEPES, 10; pH 7.4). Cells were isolated by enzymatic dissociation as previously described with minor modifications in Klockner, U. and Isenberg, G., Pflugers Arch. 1985, 405, 329-339, hereby incorporated by reference. The bladder was cut into small sections and incubated in 5 mL of the Kreb's solution containing 1 mg/mL collagenase (Sigma, St. Louis, Mo.) and 0.2 mg/mL pronase (Calbiochem, La Jolla, Calif.) with continuous stirring in a cell incubator for 30 minutes. The mixture was then centrifuged at 1300×g for 5 minutes, and the pellet resuspended in Dulbecco's PBS (GIBCO, Gaithersburg, Md.) and recentrifuged to remove residual enzyme. The cell pellet was resuspended in 5 mL growth media (composition: Dulbecco's modified Eagle's medium supplemented with 10% fetal bovine serum, 100 units/mL penicillin, 100 units/mL streptomycin and […] amphotericin B) and further dissociated by pipetting the suspension through a flame-polished Pasteur pipette and passing it through a polypropylene mesh membrane (Spectrum, Houston, Tex.). The cell density was adjusted to 100,000 cells/mL by resuspension in growth media. Cells were plated in clear-bottomed black 96-well plates (Packard) for membrane potential studies at a density of 20,000 cells/well and maintained in a cell incubator with 90% air: 10% CO2 until confluent. Cells were confirmed to be of smooth muscle type by cytoskeletal staining using a monoclonal mouse anti human-α-smooth muscle actin (Biomeda, Foster City, Calif.).
Functional activity at potassium channels was measured by evaluating changes in membrane potential using the bis-oxonol dye DiBAC(4)3 (Molecular Probes) in a 96-well cell-based kinetic assay system, Fluorescent Imaging Plate Reader (FLIPR) (K. S. Schroeder et al., J. Biomed. Screen., v. 1 pp. 75-81 (1996)), hereby incorporated by reference. DiBAC(4)3 is an anionic potentiometric probe which partitions between cells and extracellular solution in a membrane potential-dependent manner. With increasing membrane potential (for example, K^+ depolarization), the probe fuither partitions into the cell; this is measured as an increase in fluorescence due to dye interaction with intracellular lipids and proteins. Conversely, decreasing membrane potential (hyperpolarization by potassium channel openers) evokes a decrease in fluorescence.
Confluent guinea-pig urinary bladder cells cultured in black clear-bottomed 96-well plates were rinsed twice with […] assay buffer (composition, mM: HEPES, 20; NaCl, 120; KCl, 2; CaCl2, 2; MgCl2, 1; glucose, 5; pH 7.4 at 25° C.) containing 5 μM DiBAC(4)3 and incubated with […] of the buffer in a cell incubator for 30 minutes at 37° C. to ensure dye distribution across the membrane. After recording the baseline fluorescence for 5 minutes, the reference or test compounds, prepared at 10 times the concentration in the assay buffer, were added directly to the wells. Changes in fluorescence were monitored for an additional 25 minutes. Hyperpolarization responses were corrected for any background noise and were normalized to the response observed with 10 μM of the reference compound P1075, N″-cyano-N-(tert-pentyl)-N′-(3-pyridinyl)guanidine, which was assigned as 100%. P1075 is a potent opener of smooth muscle KATP channels (Quast et al., Mol. Pharmacol., v. 43 pp. 474-481 (1993)) and was prepared using the procedures described in (Manley, J. Med. Chem. (1992) 35, 2327-2340), hereby incorporated by reference. […]

| SMILES | Emax (Cavia porcellus) [%] | pEC50 (Cavia porcellus) | Maximal Response (% P1075) | pEC50 |
| --- | --- | --- | --- | --- |
| CC1=C(C#N)C(c2ccc(F)c(Br)c2)C2=C(CCNC2=O)N1 (racemic) [Example 1, 4-(3-bromo-4-fluorophenyl)-3-cyano-2-methyl-4,6,7,8-tetrahydro[1,6]naphthyridin-5(1H)-one] | 83 | 7.28 | – | – |
| CC1=C(C#N)C(c2ccc(F)c(Br)c2)c2c(cc[nH]c2=O)N1 (racemic) [Example 4, 4-(3-bromo-4-fluorophenyl)-3-cyano-2-methyl-4,6-dihydro[1,6]naphthyridin-5(1H)-one] | 92 | 7.89 | – | – |
| CC(=O)C1=C(C)Nc2cc[nH]c(=O)c2C1c1ccc(F)c(Br)c1 (racemic) [Example 18, 3-acetyl-4-(3-bromo-4-fluorophenyl)-2-methyl-4,6-dihydro[1,6]naphthyridin-5(1H)-one] | 83 | 6.13 | – | – |
| CC1=C(C#N)C(c2ccc(F)c(Br)c2)c2c(ccnc2Cl)N1 (racemic) [Example 32, 4-(3-bromo-4-fluorophenyl)-5-chloro-3-cyano-2-methyl-1,4-dihydro[1,6]naphthyridine] | 91 | 8.40 | – | – |
| CC1=C(C#N)C(c2ccc(F)c(Br)c2)C2=C(CCNC2=O)N1 (stereo not drawn) [Example 3, 4-(3-bromo-4-fluorophenyl)-3-cyano-2-methyl-4 6,7,8-tetrahydro[1,6]naphthyridin-5(1H)-one] | – | – | 78 | 5.60 |
| CC1=C(C#N)C(c2ccc(Cl)c(Cl)c2)C2=C(CCNC2=O)N1 (stereo not drawn) [Example 8, 4-(3,4-dichlorophenyl)-3-cyano-2-methyl-4,6,7,8-tetahydro[1,6]naphthyridin-5(1H)-one] | – | – | 97 | 7.42 |
| CC1=C(C#N)C(c2cccc([N+](=O)[O-])c2)C2=C(CCNC2=O)N1 (stereo not drawn) [Example 9, 4-(3-nitrophenyl)-3-cyano-2-methyl-4,6,7,8-tetrahydro[1,6]naphthyridin-5(1H)-one] | 106 | 6.21 | – | – |
| CC1=C(C#N)C(c2ccc(Cl)c([N+](=O)[O-])c2)C2=C(CCNC2=O)N1 (stereo not drawn) [Example 10, 4-(4-chloro-3-nitrophenyl)-3-cyano-2-methyl-4,6,7,8-tetrahydro[1,6]naphthyridin-5(1H)-one] | 110 | 6.85 | – | – |
| CC1=C(C#N)C(c2ccc(Br)c(Br)c2)C2=C(CCNC2=O)N1 (stereo not drawn) [Example 11, 4-(3,4-dibromophenyl)-3-cyano-2-methyl-4,6,7,8-tetrahydro[1,6]naphthyridin-5(1H)-one] | 105 | 7.64 | – | – |
| CC1=C(C#N)C(c2ccc(F)c(F)c2)C2=C(CCNC2=O)N1 (stereo not drawn) [Example 12, 4-(3,4-difluorophenyl)-3-cyano-2-methyl-4,6,7,8-tetrahydro[1,6]naphthyridin-5(1H)-one] | 89 | 6.05 | – | – |
| CC1=C(C#N)C(c2ccc(F)c(C(F)(F)F)c2)C2=C(CCNC2=O)N1 (stereo not drawn) [Example 13, 4-[4-fluoro-3-(trifluoromethyl)phenyl]-3-cyano-2-methyl-4,6,7,8-tetrahydro[1,6]naphthyridin-5(1H)-one] | 99 | 6.46 | – | – |
| CC1=C(C#N)C(c2cc(F)c(F)cc2F)C2=C(CCNC2=O)N1 (stereo not drawn) [Example 14, 4-(2,4,5-trifluorophenyl)-3-cyano-2-methyl-4,6,7,8-tetrahydro[1,6]naphthyridin-5(1H)-one] | 84 | 5.59 | – | – |
| CC1=C(C#N)C(c2ccc(F)c(Cl)c2)C2=C(CCNC2=O)N1 (stereo not drawn) [Example 15, 4-(3-chloro-4-fluorophenyl)-3-cyano-2-methyl-4,6,7,8-tetrahydro[1,6]naphthyridin-5(1H)-one] | 102 | 6.96 | – | – |
| CC1=C(C#N)C(c2ccc(Cl)c(C(F)(F)F)c2)C2=C(CCNC2=O)N1 (stereo not drawn) [Example 16, 4-[4-chloro-3-(trifluoromethyl)phenyl]-3-cyano-2-methyl-4,6,7,8-tetrahydro[1,6]naphthyridin-5(1H)-one] | 109 | 6.74 | – | – |
| CC(=O)C1=C(C)NC2=C(C(=O)NCC2)C1c1ccc(F)c(Br)c1 (stereo not drawn) [Example 17, 3-acetyl-4-(3-bromo-4-fluorophenyl)-2-methyl-4,6,7,8-tetrahydro[1,6]naphthyridin-5(1H)-one] | 45 | 4.85 | – | – |
| CC(=O)C1=C(C)Nc2cc[nH]c(=O)c2C1c1ccc(F)c(Br)c1 (stereo not drawn) [Example 19, 3-acetyl-4-(3-bromo-4-fluorophenyl)-2-methyl-4,6-dihydro[1,6]naphthyridin-5(1H)-one] | 104 | 6.21 | – | – |
| O=C1NCCC2=C1C(c1ccc(F)c(Br)c1)C(C(=O)c1ccccc1)=C(c1ccccc1)N2 (stereo not drawn) [Example 20, 3-benzoyl-4-(3-bromo-4-fluorophenyl)-2-phenyl-4,6,7,8-tetrahydro[1,6]naphthyridin-5(1H)-one] | 51 | 4.74 | – | – |
| CC1=C(C#N)C(c2ccc(F)c(Br)c2)C2=C(CCOC2=O)N1 (stereo not drawn) [Example 28, 4-(3-bromo-4-fluorophenyl)-3-cyano-2-methyl-1,4,7,8-tetrahydro-5H-pyrano[4,3-b]pyridin-5-one] | 82 | 7.66 | – | – |
| COC(=O)C1=C(C)NC2=C(C(=O)OCC2)C1c1ccc(F)c(Br)c1 (stereo not drawn) [Example 29, 4-(3-bromo-4-fluorophenyl)-3-methoxycarbonyl-2-methyl-1,4,7,8-tetrahydro-5H-pyrano[4,3-b]pyridin-5-one] | 81 | 7.72 | – | – |
| COC(=O)C1=C(C)NC2=C(C(=O)OCC2)C1c1ccc(F)c(C(F)(F)F)c1 (stereo not drawn) [Example 30, 4-[4-fluoro-3-(trifluoromethyl)phenyl]-3-methoxycarbonyl-2-methyl-1,4,7,8-tetrahydro-5H-pyrano[4,3-b]pyridin-5-one] | 52 | 5.40 | – | – |
| COC(=O)C1=C(C)Nc2ccnc(Cl)c2C1c1ccc(F)c(Br)c1 (stereo not drawn) [Example 31, 4-(3-bromo-4-fluorophenyl)-5-chloro-3-(methoxycarbonyl)-2-methyl-1,4-dihydro[1,6]naphthyridine] | 93 | 7.41 | – | – |

Source: patent publication US20020099070A1, “Dihydronaphthyridine potassium channel openers” (priority 2000, published 2002)
